# Test results: paper PMC9786748, “Carvacrol and HP-β-Cyclodextrin Complexes: Extensive Characterization and Potential Cytotoxic Effect in Human Colorectal Carcinoma Cells” (Pharmaceutics, 2022)
# Read-outs that look alike come from different tables or passages of the source.
# Key:
# [1] = Solubility of carvacrol in the absence of cyclodextrins (S0) at different pH; type: physicochemical; details: for S0 (solubility of carvacrol) / solubility at 60 min: absence of CDs; for solubility at 60 min: aqueous buffer, thermodynamic from solid
# Description: (§1) The solubility studies of carvacrol, in the presence of CDs, were performed according to the method described by Higuchi and Connors in 1965, with slight modifications. […] For an evaluation of the pH effect in the process of complex formation, these solutions were prepared in different buffer solutions: 100 mM sodium acetate buffer, pH 3.5 and 5.5; 100 mM sodium phosphate buffer, pH 6.5 and 7.0; and 100 mM sodium borate buffer, pH 8.5. To each solution, a saturating amount of the carvacrol under analysis was added, then the solutions were kept in an ultrasonic bath for 60 min in the dark at 25 °C until equilibrium was reached. After this point, the solutions were filtered through 0.45 μm nylon to remove the excess carvacrol.
# (§2) To quantify the amount of monoterpene in each filtrate, the complexes were disrupted by adding 80% ethanol. Each solution was then introduced into a gas chromatograph, coupled to a mass spectrometer (Shimadzu QP 2010) equipped with an Slb-5 ms (30 m × 0.25 mm × […]) capillary column. The operating conditions are as follows: the starting temperature is 70 °C, the temperature is increased at a rate of 4 °C/min until it reaches 160 °C and is then increased to 280 °C at a rate of 30 °C/min, then held there for 6 min; the inlet temperature is 250 °C, the injection type is a 1:20 split mode, with helium used as the carrier gas. Component identification is based on the relative elution times and comparison of the mass spectra of each peak against a database containing the system.
# (§3) Once the concentrations of carvacrol in each sample were quantified, the values obtained were plotted against the concentrations of CDs. For the calculation of KC, the slope and intercept of the phase diagrams related to the solubility studies were determined, according to Equation (1):(1) KC=Slope/S0 (1−Slope) where S0 is the solubility of carvacrol at 25 °C, in the absence of cyclodextrins, and Slope is the gradient of the phase solubility diagrams.
# [2] = end of the 7-day period, 300 µM, DMEM with HCT-116 cells, 37 °C
# Description: Carvacrol release from the free and complexed carvacrol was monitored by chromatography (see Section 2.2). Briefly, 1 × 10^5 HCT-116 cells were grown for up to 7 days in DMEM, supplemented with 300 µM free or complexed HP-β-CD-carvacrol, at 37 °C. At each appropriate time point (days 1–7), 1 mL aliquots were withdrawn and replaced with an equal volume of fresh medium. All determinations were made in triplicate.
# [3] = weak acid; cited from earlier work
# [4] = Complexation of carvacrol with HP-β-CD by microwave irradiation (MWI); type: physicochemical; details: for increase in solubility of carvacrol / KC: HP-β-CDs
# Description: as §3
# The calculation of the complexation constant (KC) between carvacrol and HP-β-CDs was carried out by the addition of different concentrations of HP-β-CDs to 100 mL of water, maintaining a 1:1 molar ratio. Aqueous HP-β-CD solutions (0–100 mM) were irradiated with microwaves for 30 s at 10 s intervals until the dissolution reached 70 °C. The carvacrol was then added to each sample and irradiated again for 30 s at the same intervals (10 s) until the samples reached 70 °C. Subsequently, the samples were shaken and held for 12 h in scintillation vials, sealed with parafilm, and protected from light.
# Then, we repeated the above procedure by irradiating the sample again until it reached 70 °C. The solution was then filtered through 0.45 μm nylon to remove the excess carvacrol. Finally, the concentration of monoterpene was determined via CG-MS.
# [5] = Phase solubility study of carvacrol with β-CDs (Higuchi and Connors); type: physicochemical; details: for CE (complexation efficiency) / KC: β-CDs
# Description: as §1, §2, §3
# (§4) To determine the complexation efficiency (CE) of carvacrol, Equation (2) was used:(2) CE=[carvacrol−CDs]/[CD]=S0× KC.
# (§5) The molar ratio (MR) of carvacrol:CDs was calculated using the CE values and Equation (3):(3) carvacrol:CDs=1:(1+1/CE).
# [6] = test system: MRC-5 lung fibroblast cells; assay: Cell viability assay (tetrazolium), MRC-5; type: cell-based; details: Homo sapiens, MRC5; MRC-5, 72 h incubation
# Description: (§6) Colorectal adenocarcinoma (HCT-116) and non-tumoral fetal lung fibroblast (MRC5) cell lines were obtained from the American Type Culture Collection (ATCC, Rockville, MD, USA). The cell lines were cultivated in high glucose Dulbecco’s modified Eagle’s medium (DMEM) and Eagle’s minimum essential medium (EMEM), respectively, containing 10% heat-inactivated fetal bovine serum (FBS), 2 mM glutamine, 50 U/mL penicillin and 50 µg/mL streptomycin (Sigma-Aldrich Chemical Co., St. Louis, MO, USA) in an atmosphere of 5% CO2 and 95% humidified air at 37 °C. The subculture was complete when 90% confluence was reached. Fibroblasts for up to 15 doublings were used for the experiments.
# (§7) Exponentially growing cells were plated in triplicate in flat-bottomed 96-well plates (Nunc, Roskilde, Denmark) at 1500 cells/well for HCT-116 and 4000 cells/well for MRC5. The following day, compounds were added in serial dilutions, from 50 µM to 1000 µM. Control wells contained compound-free medium plus 0.1% dimethyl sulfoxide (DMSO). The plates were incubated for 3 days in a humidified 5% CO2 incubator and cell viability was determined. […] The formazan crystals were dissolved in 200 µL DMSO for 30 min and the absorbance was read at 570 nm in a microtiter plate reader. The results were calculated as:(7) cell viability (%)=average O.D of wells/average O.D of control wells.
# [7] = Complexation of carvacrol with HP-β-CD by ultrasound (US); type: physicochemical
# Description: as §3
# The solubility method was developed from that used by Higuchi and Connors, with minor modifications. We added an excess of carvacrol to an aqueous solution that increased the concentration to 100 mM HP-β-CD, in 100 mL of water, at 25 °C. […] The aqueous solutions were filtered through 0.45 µm nylon to remove the excess free carvacrol. To determine the amount of carvacrol complexed, samples were diluted in ethanol-water at 80% and analyzed via gas chromatography–mass spectrometry (CG–MS).
# [8] = Phase solubility study of carvacrol with HP-β-CDs (Higuchi and Connors); type: physicochemical
# Description: as §1, §2, §3, §4, §5
# [9] = test system: HCT-116 colorectal cancer cells; assay: Cell viability assay (tetrazolium), HCT-116; type: cell-based; details: Homo sapiens; HCT-116, 72 h incubation
# Description: as §6, §7
# [10] = Phase solubility study of carvacrol with α-CDs (Higuchi and Connors); type: physicochemical
# Description: as §1, §2, §3, §4, §5
# [11] = design: method as in PMID 25298799; details: with HP-β-CDs; cited from earlier work
# [12] = design: method as in PMID 25298799; details: with RAMEB; cited from earlier work
# [13] = design: method as in PMID 25298799; details: with CRYSMEB; cited from earlier work
smiles,measurement,setting,value
Cc1ccc(C(C)C)cc1O [carvacrol],S0 (solubility of carvacrol),"[1]; pH 3.5, 25 °C",2760 ± 200 µM
same,S0 (solubility of carvacrol),"[1]; pH 6.5, 25 °C",920 ± 110 µM
same,decrease of solubility at pH 7.0 relative to acidic pH,[1]; pH 7.0 vs acidic pH (S0 = 2.76),80%
same,S0 (solubility of carvacrol),"[1]; pH 8.5, 25 °C",760 ± 130 µM
same,solubility at 60 min,"[1]; sodium acetate buffer, pH 3.5, 25 °C",2760 µM
same,solubility at 60 min,"[1]; sodium acetate buffer, pH 5.5, 25 °C",1650 ± 160 µM
same,solubility at 60 min,"[1]; sodium borate buffer, pH 8.5, 25 °C",760 µM
same,solubility at 60 min,"[1]; sodium phosphate buffer, pH 6.5, 25 °C",920 µM
same,solubility at 60 min,"[1]; sodium phosphate buffer, pH 7.0, 25 °C",560 ± 30 µM
same,soluble drug (carvacrol release),[2],4.37 ± 1.61%
same,pKa,[3],10.38
same,increase in solubility of carvacrol,"[4]; MWI, 24 h",151.8 times
same,increase in solubility of carvacrol,"[4]; MWI, 48 h",155.6 times
same,KC,"[4]; MWI, at 24 h, pH 7.0",8129 ± 194 L/mol
same,KC,"[4]; MWI, at 48 h, pH 7.0",6811 ± 107 L/mol
same,KC,[4]; microwave irradiation (MWI),6909 ± 161 L/mol
same,S0,[4]; in the case of MWI,0.35 mmol/L
same,KC with β-CDs relative to KC with α-CD,[5]; compared with α-CD (400 ± 56),8 times higher
same,CE (complexation efficiency),[5]; pH 3.5,0.386
same,KC,[5]; pH 3.5,140 ± 21 L/mol
same,CE (complexation efficiency),[5]; pH 5.5,1.234
same,KC,[5]; pH 5.5,748 ± 19 L/mol
same,CE (complexation efficiency),[5]; pH 6.5,0.797
same,KC,[5]; pH 6.5,866 ± 180 L/mol
same,CE (complexation efficiency),[5]; pH 7.0,1.941
same,KC,[5]; pH 7.0,3466 ± 115 L/mol
same,CE (complexation efficiency),[5]; pH 8.5,0.441
same,KC,[5]; pH 8.5,580 ± 45 L/mol
same,IC50,[6],398 µM
same,increase in solubility of carvacrol,"[7]; HP-β-CDs, US method",132.9 times
same,KC,"[7]; HP-β-CDs, US, pH 7.0",6909 ± 161 L/mol
same,KC,"[7]; HP-β-CDs, ultrasound (US), 24 h",8129 ± 194 L/mol
same,S0,[7]; achieved by US,0.56 mmol/L
same,CE (complexation efficiency),[8]; pH 3.5,0.546
same,KC,[8]; pH 3.5,198 ± 19 L/mol
same,CE (complexation efficiency),[8]; pH 5.5,0.540
same,KC,[8]; pH 5.5,327 ± 37 L/mol
same,CE (complexation efficiency),[8]; pH 6.5,1.399
same,KC,[8]; pH 6.5,1521 ± 73 L/mol
same,CE (complexation efficiency),[8]; pH 7.0,2.824
same,KC,[8]; pH 7.0,5042 ± 176 L/mol
same,CE (complexation efficiency),[8]; pH 8.5,0.739
same,KC,[8]; pH 8.5,973 ± 94 L/mol
same,IC50,[9],385 µM
same,CE (complexation efficiency),[10]; pH 3.5,0.298
same,KC,[10]; pH 3.5,108 ± 16 L/mol
same,CE (complexation efficiency),[10]; pH 5.5,0.317
same,KC,[10]; pH 5.5,192 ± 24 L/mol
same,CE (complexation efficiency),[10]; pH 6.5,0.220
same,KC,[10]; pH 6.5,239 ± 42 L/mol
same,CE (complexation efficiency),[10]; pH 7.0,0.224
same,KC,[10]; pH 7.0,400 ± 56 L/mol
same,CE (complexation efficiency),[10]; pH 8.5,0.216
same,KC,[10]; pH 8.5,284 ± 37 L/mol
O=C(O)/C=C/c1ccc(O)cc1 [p-coumaric acid],CE (complexation efficiency),[11],2.30
same,CE (complexation efficiency),[12],2.57
same,CE (complexation efficiency),[13],1.89
